Assays:
[1] = Metabolite identification in rat plasma, urine, feces and bile; assay type: in vivo, SD rats; conditions: for Relative abundance of MS peak areas, Rat Bile 0-48 h / Relative abundance of MS peak areas, Rat Feces 0-48 h / Relative abundance of MS peak areas, Rat Urine 0-48 h: oral 6 mg/kg BPI-460372, average of male and female pooled samples; for Relative abundance of MS peak areas, Rat Plasma 0-24 h: oral 12 mg/kg BPI-460372, average of male and female pooled samples
Protocol: (§1) The plasma samples were acquired from SD rats (n=6, 3 female and 3 male) and beagle dogs (n=6, 3 female and 3 male) after administration of 12 mg/kg and 8 mg/kg of BPI-460372, respectively. The rat urine, feces, and bile samples were acquired in SD rats after administration of 6 mg/kg of BPI-460372.
(§2) Equal volume from each rat was pooled together to get 1 male and 1 female 0-24 h plasma samples. An equal percentage by volume of individual urine sample (0-8, 8-24, and 24-48 h) from 3 female and 3 male rats was pooled by time interval across rats, respectively, resulting in two pooled urine samples (1 male and 1 female). An equal percentage by weight of individual feces samples (0-8, 8-24, and 24-48 h) was pooled by time interval across female and male rats, resulting in two pooled fecal samples. An equal percentage by volume of individual bile samples (0-4, 4-8, 8-24, and 24-48 h) was pooled by time interval across female and male rats, resulting in two pooled bile samples. […] Equal volumes from 3 female and 3 male rats were pooled together to get two 0-48 h plasma samples. For blank samples of plasma, urine, and bile, equal volume was pooled across subjects. For a blank sample of feces, equal weight was pooled across rats.
(§3) The pooled plasma, feces, and bile samples were extracted by adding 3-fold volume of acetonitrile, and the mixture was vortexed (1 min) and sonicated (1 min) before centrifugation (7220 g, 5 min). The pooled urine samples were centrifuged (7220 g, 5 min). Then the supernatant was transferred into a clean tube and evaporated to dryness under the nitrogen stream. The residues were redissolved with an appropriate volume of acetonitrile/water (20: 80, v: v). After centrifugation, the redissolved solution was transferred into an HPLC vial for UHPLC-Orbitrap-HRMS (15000 g, 10 min, 4°C).

[2] = system: cysteine S-conjugate β-lyase; assay: Effect of cysteine S-conjugate β-lyase inhibitor AOAA on the metabolism of BPI-460372 (rat urine); conditions: for Area ratio in rat urine, mean (%CV): 20 mg/kg BPI-460372 + 100 mg/kg AOAA, once daily 21 days, urine 0-48 h on day 21; for Change of area ratio in rat urine on coadministration with AOAA: 20 mg/kg BPI-460372 with versus without 100 mg/kg AOAA
Protocol: To investigate the effect of cysteine S-conjugate β-lyase on the metabolism of BPI-460372, SD rats were treated with 20 mg/kg BPI-460372 alone (n=3, male) or 20 mg/kg BPI-460372 coadministration with 100 mg/kg cysteine S-conjugate β-lyase inhibitor AOAA (n=3, male), once daily for 21 consecutive days. On day 21, urine samples were collected at 0-8, 8-24 and 24-48 h. The same percentage of urine samples from each rat was taken at these three time intervals and mixed. The samples were analyzed by LC-MS/MS and then semi-quantified using the peak area ratio of analyte versus IS.

[3] = system: human hepatocytes; assay: Metabolism and metabolite formation in hepatocytes; conditions: human hepatocytes, 10 µM BPI-460372, 4 h incubation
[4] = system: rat hepatocytes; assay: Metabolism and metabolite formation in hepatocytes; assay type: in vitro ADME, SD rat; conditions: SD rat hepatocytes, 10 µM BPI-460372, 4 h incubation
Text: (§4) All the samples were duplicates.

[5] = system: mouse hepatocytes; assay: Metabolism and metabolite formation in hepatocytes; assay type: in vitro ADME, ICR mouse; conditions: ICR mouse hepatocytes, 10 µM BPI-460372, 4 h incubation
Text: as §4

[6] = system: monkey hepatocytes; assay: Metabolism and metabolite formation in hepatocytes; assay type: in vitro ADME, cynomolgus monkey; conditions: cynomolgus monkey hepatocytes, 10 µM BPI-460372, 4 h incubation
Text: as §4

[7] = system: dog hepatocytes; assay: Metabolism and metabolite formation in hepatocytes; assay type: in vitro ADME, beagle dog; conditions: beagle dog hepatocytes, 10 µM BPI-460372, 4 h incubation
Text: as §4

[8] = Metabolite identification in dog plasma; assay type: in vivo, beagle dogs; conditions: oral 8 mg/kg BPI-460372, average of male and female pooled samples
Protocol: as §1, §2, §3

Row | Structure (SMILES) | Relative abundance of MS peak areas, Rat Bile 0-48 h [1] [%] | Relative abundance of MS peak areas, Rat Plasma 0-24 h [1] [%] | UV (314 nm) Peak Areas Relative Abundance [3] | UV (314 nm) Peak Areas Relative Abundance [4] | UV (314 nm) Peak Areas Relative Abundance [5] [%] | UV (314 nm) Peak Areas Relative Abundance [6] | UV (314 nm) Peak Areas Relative Abundance [7] | Relative abundance of MS peak areas, Dog Plasma 0-48 h [8] [%] | Relative abundance of MS peak areas, Rat Feces 0-48 h [1] [%] | Relative abundance of MS peak areas, Rat Urine 0-48 h [1] [%] | Area ratio in rat urine, mean (%CV) [2] | Change of area ratio in rat urine on coadministration with AOAA [2]
1 | CC(=O)NC(CSCC(O)C(=O)N1CC(n2c(=O)n(-c3ccc(C(F)(F)F)cc3)c3cncnc32)C1)C(=O)O (stereo not shown) [M568] | 3.22 |  |  |  |  |  |  |  | 0.45 | 1.80 | 0.06 (20) | reduced
2 | O=c1n(-c2ccc(C(F)(F)F)cc2)c2nccnc2n1C1CN(C(O)C(O)CO)C1 (stereo not shown) [M425] |  | 0.14 |  |  |  |  |  | 0.98 | 2.79 | 2.52 |  | 
3 | CC(=O)NC(CSCC(F)C(=O)N1CC(n2c(=O)n(-c3ccc(C(F)(F)F)cc3)c3nccnc32)C1)C(=O)O (stereo not shown) [M570] | 45.40 | 0.12 | 1.48% | 2.6% | 3.57 |  | 2.44% |  | 3.96 | 34.25 | 0.08 (40) | reduced
4 | CC(=O)N1CC(n2c(=O)n(-c3ccc(C(F)(F)F)cc3)c3nccnc32)C1 [M377] |  |  | 1.48% | 2.6% | 3.57 | 2.50% | 2.44% |  |  |  |  | 

The next lines start with results.

Row | Relative abundance of MS peak areas, Rat Bile 0-48 h [1] [%] | Relative abundance of MS peak areas, Rat Plasma 0-24 h [1] [%] | UV (314 nm) Peak Areas Relative Abundance [3] | UV (314 nm) Peak Areas Relative Abundance [4] | UV (314 nm) Peak Areas Relative Abundance [5] [%] | UV (314 nm) Peak Areas Relative Abundance [6] | UV (314 nm) Peak Areas Relative Abundance [7] | Relative abundance of MS peak areas, Dog Plasma 0-48 h [8] [%] | Structure (SMILES) | Relative abundance of MS peak areas, Rat Feces 0-48 h [1] [%] | Relative abundance of MS peak areas, Rat Urine 0-48 h [1] [%] | Area ratio in rat urine, mean (%CV) [2] | Change of area ratio in rat urine on coadministration with AOAA [2]
5 | 0.56 | 0.015 |  |  |  |  |  |  | CC(=O)NC(CSCCC(=O)N1CC(n2c(=O)n(-c3ccc(C(F)(F)F)cc3)c3cncnc32)C1)C(=O)O (stereo not shown) [M552] | 1.65 | 6.73 |  | 
6 | 0.10 |  | + | + | 1.43 | + | + |  | NC(CCC(=O)NC(CSCC(O)C(=O)N1CC(n2c(=O)n(-c3ccc(C(F)(F)F)cc3)c3nccnc32)C1)C(=O)NCC(=O)O)C(=O)O (stereo not shown) [M712] |  |  |  | 
7 | 3.27 |  | 3.01% | 18.4% | 24.76 | 3.01% | 22.65% |  | NC(CCC(=O)NC(CSCC(F)C(=O)N1CC(n2c(=O)n(-c3ccc(C(F)(F)F)cc3)c3nccnc32)C1)C(=O)NCC(=O)O)C(=O)O (stereo not shown) [M714] |  |  |  | 
